{"source": "patent US20230053540A1", "about": "“TREATMENT OF LIVER INJURY” (Massachusetts Institute of Technology, priority 2019, published 2023)", "test_system": "hepatocytes", "experiment": "Seq-Well scRNA-Seq of hepatocytes after APAP overdose (signature scores, DEG vs untreated)", "format": "in vivo, mouse", "conditions": "A6"}
{"smiles": "CC(=O)Nc1ccc(O)cc1", "note": "[APAP, acetaminophen]", "values": [{"measurement": "2-Mar pct.1", "result": 0.611}, {"measurement": "2010003K11Rik pct.1", "result": 0.396}, {"measurement": "2810007J24Rik pct.1", "result": 0.675}, {"measurement": "8430408G22Rik pct.1", "result": 0.041}, {"measurement": "Aadac pct.1", "result": 0.673}, {"measurement": "Aass pct.1", "result": 0.747}, {"measurement": "Abca1 pct.1", "result": 0.604}, {"measurement": "Abhd2 pct.1", "result": 0.37}, {"measurement": "Acaa1b pct.1", "result": 0.752}, {"measurement": "Adck3 pct.1", "result": 0.363}, {"measurement": "Adh1 pct.1", "result": 0.74}, {"measurement": "Adh4 pct.1", "result": 0.165}, {"measurement": "Agpat9 pct.1", "result": 0.277}, {"measurement": "Akr1c6 pct.1", "result": 0.675}, {"measurement": "Akr1c20 pct.1", "result": 0.248}, {"measurement": "Alb pct.1", "result": 1}, {"measurement": "Aldh1a1 pct.1", "result": 0.862}, {"measurement": "Aldh3a2 pct.1", "result": 0.064}, {"measurement": "Aldh8a1 pct.1", "result": 0.418}, {"measurement": "Ang pct.1", "result": 0.315}, {"measurement": "Apoa2 pct.1", "result": 0.993}, {"measurement": "Apoa4 pct.1", "result": 0.721}, {"measurement": "Apob pct.1", "result": 0.99}, {"measurement": "Apoc1 pct.1", "result": 0.962}, {"measurement": "Apoc3 pct.1", "result": 0.869}, {"measurement": "Apoe pct.1", "result": 1}, {"measurement": "Apol7a pct.1", "result": 0.072}, {"measurement": "Arhgef12 pct.1", "result": 0.578}, {"measurement": "Arl4d pct.1", "result": 0.112}, {"measurement": "Asl pct.1", "result": 0.826}, {"measurement": "Atp2a2 pct.1", "result": 0.616}, {"measurement": "Atp5e pct.1", "result": 0.506}, {"measurement": "Atp5h pct.1", "result": 0.377}, {"measurement": "B4galt5 pct.1", "result": 0.332}, {"measurement": "Bach1 pct.1", "result": 0.461}, {"measurement": "Bcl2l1 pct.1", "result": 0.501}, {"measurement": "Btg2 pct.1", "result": 0.549}, {"measurement": "C8g pct.1", "result": 0.673}, {"measurement": "C230081A13Rik pct.1", "result": 0.279}, {"measurement": "Car3 pct.1", "result": 0.854}, {"measurement": "Ccl6 pct.1", "result": 0.274}, {"measurement": "Cd5l pct.1", "result": 0.21}, {"measurement": "Cd14 pct.1", "result": 0.153}, {"measurement": "Cd302 pct.1", "result": 0.649}, {"measurement": "Cdkn1a pct.1", "result": 0.702}, {"measurement": "Cers6 pct.1", "result": 0.332}, {"measurement": "Ces3a pct.1", "result": 0.831}, {"measurement": "Chchd2 pct.1", "result": 0.718}, {"measurement": "Chka pct.1", "result": 0.716}, {"measurement": "Cidec pct.1", "result": 0.253}, {"measurement": "Clec4f pct.1", "result": 0.339}, {"measurement": "Clqb pct.1", "result": 0.234}, {"measurement": "Cltc pct.1", "result": 0.661}, {"measurement": "Cml1 pct.1", "result": 0.475}, {"measurement": "Cox4i1 pct.1", "result": 0.869}, {"measurement": "Cox6c pct.1", "result": 0.558}, {"measurement": "Cox7a2 pct.1", "result": 0.456}, {"measurement": "Cox7b pct.1", "result": 0.632}, {"measurement": "Creb3l2 pct.1", "result": 0.329}, {"measurement": "Ctsl pct.1", "result": 0.878}, {"measurement": "Ctss pct.1", "result": 0.212}, {"measurement": "Cxadr pct.1", "result": 0.606}, {"measurement": "Cyb5 pct.1", "result": 0.916}, {"measurement": "Cyp4a14 pct.1", "result": 0.776}, {"measurement": "D10Wsu102e pct.1", "result": 0.37}, {"measurement": "Dbi pct.1", "result": 0.819}, {"measurement": "Ddt pct.1", "result": 0.539}, {"measurement": "Ddx3x pct.1", "result": 0.692}, {"measurement": "Ddx5 pct.1", "result": 0.685}, {"measurement": "Dusp5 pct.1", "result": 0.196}, {"measurement": "Dusp6 pct.1", "result": 0.482}, {"measurement": "Efhd2 pct.1", "result": 0.468}, {"measurement": "Eif1a pct.1", "result": 0.599}, {"measurement": "Eif4g2 pct.1", "result": 0.757}, {"measurement": "Epas1 pct.1", "result": 0.604}, {"measurement": "Etf1 pct.1", "result": 0.606}, {"measurement": "Ets2 pct.1", "result": 0.415}, {"measurement": "Fabp1 pct.1", "result": 0.971}, {"measurement": "Fabp2 pct.1", "result": 0.315}, {"measurement": "Fam134b pct.1", "result": 0.678}, {"measurement": "Fdx1 pct.1", "result": 0.305}, {"measurement": "Fga pct.1", "result": 0.986}, {"measurement": "Fgb pct.1", "result": 0.995}, {"measurement": "Fgg pct.1", "result": 0.986}, {"measurement": "Fkbp5 pct.1", "result": 0.415}, {"measurement": "Fxyd5 pct.1", "result": 0.138}, {"measurement": "G6pc pct.1", "result": 0.313}, {"measurement": "Gamt pct.1", "result": 0.277}, {"measurement": "Gclc pct.1", "result": 0.962}, {"measurement": "Gcnt2 pct.1", "result": 0.372}, {"measurement": "Gjb2 pct.1", "result": 0.678}, {"measurement": "Glyat pct.1", "result": 0.468}, {"measurement": "Gm13775 pct.1", "result": 0.284}, {"measurement": "Gm15564 pct.1", "result": 0.983}, {"measurement": "Gm24601 pct.1", "result": 0.241}, {"measurement": "Gm26924 pct.1", "result": 1}, {"measurement": "Gn13 pct.1", "result": 0.501}, {"measurement": "Gpt2 pct.1", "result": 0.764}, {"measurement": "Gpx1 pct.1", "result": 0.969}, {"measurement": "Grn pct.1", "result": 0.582}, {"measurement": "Gsta1 pct.1", "result": 0.32}, {"measurement": "Gulo pct.1", "result": 0.076}, {"measurement": "H3f3b pct.1", "result": 0.613}, {"measurement": "Haao pct.1", "result": 0.621}, {"measurement": "Hacl1 pct.1", "result": 0.489}, {"measurement": "Hagh pct.1", "result": 0.573}, {"measurement": "Hba-a1 pct.1", "result": 0.165}, {"measurement": "Hba-a2 pct.1", "result": 0.131}, {"measurement": "Hbb-bs pct.1", "result": 0.537}, {"measurement": "Hbb-bt pct.1", "result": 0.246}, {"measurement": "Hebp1 pct.1", "result": 0.43}, {"measurement": "Hes6 pct.1", "result": 0.076}, {"measurement": "Hgd pct.1", "result": 0.511}, {"measurement": "Hif1a pct.1", "result": 0.427}, {"measurement": "Hilpda pct.1", "result": 0.403}, {"measurement": "Hint1 pct.1", "result": 0.57}, {"measurement": "Hmox1 pct.1", "result": 0.558}, {"measurement": "Hnf4a pct.1", "result": 0.835}, {"measurement": "Hpd pct.1", "result": 0.883}, {"measurement": "Hsd3b5 pct.1", "result": 0.062}, {"measurement": "Hsd17b13 pct.1", "result": 0.864}, {"measurement": "Hspb8 pct.1", "result": 0.709}, {"measurement": "Iigp1 pct.1", "result": 0.78}, {"measurement": "Il1b pct.1", "result": 0.236}, {"measurement": "Il1r1 pct.1", "result": 0.683}, {"measurement": "Insig2 pct.1", "result": 0.854}, {"measurement": "Itih2 pct.1", "result": 0.893}, {"measurement": "Jak1 pct.1", "result": 0.554}, {"measurement": "Jmjd1c pct.1", "result": 0.47}, {"measurement": "Klf6 pct.1", "result": 0.382}, {"measurement": "Krt8 pct.1", "result": 0.826}, {"measurement": "Krt18 pct.1", "result": 0.864}, {"measurement": "Lactb2 pct.1", "result": 0.47}, {"measurement": "Lars2 pct.1", "result": 1}, {"measurement": "Lifr pct.1", "result": 0.389}, {"measurement": "Lpgat1 pct.1", "result": 0.618}, {"measurement": "Lpin2 pct.1", "result": 0.745}, {"measurement": "Lrg1 pct.1", "result": 0.783}, {"measurement": "Lrrc58 pct.1", "result": 0.711}, {"measurement": "Lyz2 pct.1", "result": 0.234}, {"measurement": "Man2a1 pct.1", "result": 0.671}, {"measurement": "Mat1a pct.1", "result": 0.986}, {"measurement": "Mbl1 pct.1", "result": 0.382}, {"measurement": "Mcm10 pct.1", "result": 0.079}, {"measurement": "Mfsd2a pct.1", "result": 0.465}, {"measurement": "Mgst1 pct.1", "result": 0.938}, {"measurement": "Mmp8 pct.1", "result": 0.136}, {"measurement": "Mrap pct.1", "result": 0.606}, {"measurement": "Msrb1 pct.1", "result": 0.558}, {"measurement": "Mt1 pct.1", "result": 0.981}, {"measurement": "Mt2 pct.1", "result": 0.938}, {"measurement": "Mthfd2 pct.1", "result": 0.205}, {"measurement": "Mup3 pct.1", "result": 1}, {"measurement": "Mup4 pct.1", "result": 0.621}, {"measurement": "Mup5 pct.1", "result": 0.475}, {"measurement": "Mup6 pct.1", "result": 0.706}, {"measurement": "Mup7 pct.1", "result": 0.831}, {"measurement": "Mup9 pct.1", "result": 0.489}, {"measurement": "Mup11 pct.1", "result": 0.511}, {"measurement": "Mup12 pct.1", "result": 0.32}, {"measurement": "Mup15 pct.1", "result": 0.076}, {"measurement": "Mup16 pct.1", "result": 0.334}, {"measurement": "Mup17 pct.1", "result": 0.871}, {"measurement": "Mup18 pct.1", "result": 0.728}, {"measurement": "Mup19 pct.1", "result": 0.759}, {"measurement": "Mup21 pct.1", "result": 0.58}, {"measurement": "Myh9 pct.1", "result": 0.718}, {"measurement": "Myo1e pct.1", "result": 0.475}, {"measurement": "Ndufa4 pct.1", "result": 0.656}, {"measurement": "Ndufa6 pct.1", "result": 0.506}, {"measurement": "Nid1 pct.1", "result": 0.229}, {"measurement": "Nop58 pct.1", "result": 0.492}, {"measurement": "Nudt7 pct.1", "result": 0.279}, {"measurement": "Oaf pct.1", "result": 0.437}, {"measurement": "Oat pct.1", "result": 0.05}, {"measurement": "Pah pct.1", "result": 0.687}, {"measurement": "Pcbd1 pct.1", "result": 0.535}, {"measurement": "Pck1 pct.1", "result": 0.814}, {"measurement": "Phlda1 pct.1", "result": 0.494}, {"measurement": "Picalm pct.1", "result": 0.647}, {"measurement": "Plin2 pct.1", "result": 0.943}, {"measurement": "Plscr1 pct.1", "result": 0.329}, {"measurement": "Pon1 pct.1", "result": 0.685}, {"measurement": "Ppib pct.1", "result": 0.463}, {"measurement": "Ppl pct.1", "result": 0.47}, {"measurement": "Ppm1k pct.1", "result": 0.15}, {"measurement": "Prdx1 pct.1", "result": 0.742}, {"measurement": "Psat1 pct.1", "result": 0.229}, {"measurement": "Psen2 pct.1", "result": 0.384}, {"measurement": "Ptprc pct.1", "result": 0.153}, {"measurement": "Ranbp2 pct.1", "result": 0.566}, {"measurement": "Rarres2 pct.1", "result": 0.678}, {"measurement": "Rcan1 pct.1", "result": 0.425}, {"measurement": "Rdh7 pct.1", "result": 0.862}, {"measurement": "Rell1 pct.1", "result": 0.375}, {"measurement": "Retnlg pct.1", "result": 0.129}, {"measurement": "Retsat pct.1", "result": 0.845}, {"measurement": "Rnase4 pct.1", "result": 0.563}, {"measurement": "Rock2 pct.1", "result": 0.425}, {"measurement": "Rora pct.1", "result": 0.549}, {"measurement": "Rps27l pct.1", "result": 0.484}, {"measurement": "S100a8 pct.1", "result": 0.353}]}
